pIC50: −log10 of the molar value. Read-outs that look alike come from different tables or passages of the source. Blank lines part the entries; values can stand above or below the compound they belong to. Where a SMILES comes first, the peptide text is derived from it. Where no end group is shown, it is not given here. [ ]: non-standard residue; d: D form. The star is where a group is joined. Sta = CC(C)C[C@H](N)[C@@H](O)CC(=O)O; Isovaleryl = CC(C)CC(=O)*
Assays:
293 cell extract = assay: Cleavage of Z-Pro-Lys-Lys-Glu-AMC (Peptide 1) by 293 cell extract and its inhibition by protease inhibitors; assay type: biochemical, human; set-up: % Inhibition: concentration or dose not given beside the values; details: inhibition of Z-Pro-Lys-Lys-Glu-AMC cleavage by 293 cell extract
Procedure: Following a 20 minutes incubation at 37° C., fluorescence released due to proteolytic activity was determined using a BMG POLARstar™ Galaxy fluorometer: excitation at 390 nm and emission at 460 nm.

pro-heparanase (H60) [1] = biological target: T1, pro-heparanase (H60) (Homo sapiens, UniProt Q9Y251, K307R); assay: Processing and activation of pro-heparanase in vitro with cathepsin B and D in the presence of heparin (Western blot, DMB assay); assay type: biochemical; details: cathepsin B and/or cathepsin D; for activation of pro-heparanase in vitro (heparanase activity): heparin-sepharose
T1 sequence (Q9Y251 36-543 K307R): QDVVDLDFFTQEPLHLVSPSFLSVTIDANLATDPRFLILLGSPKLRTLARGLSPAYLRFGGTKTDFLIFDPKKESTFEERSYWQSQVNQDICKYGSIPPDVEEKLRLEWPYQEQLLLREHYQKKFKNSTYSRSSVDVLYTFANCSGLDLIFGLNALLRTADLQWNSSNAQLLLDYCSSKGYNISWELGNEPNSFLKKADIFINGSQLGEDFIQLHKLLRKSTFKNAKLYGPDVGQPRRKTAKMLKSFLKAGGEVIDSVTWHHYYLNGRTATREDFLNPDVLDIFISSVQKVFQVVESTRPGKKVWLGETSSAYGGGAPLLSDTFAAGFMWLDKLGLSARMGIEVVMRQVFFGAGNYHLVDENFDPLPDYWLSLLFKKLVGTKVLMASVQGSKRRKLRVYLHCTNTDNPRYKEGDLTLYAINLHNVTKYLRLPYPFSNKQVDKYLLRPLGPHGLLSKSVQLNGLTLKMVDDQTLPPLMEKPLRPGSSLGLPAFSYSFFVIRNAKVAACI
Procedure: Western blot analysis—Western blot analysis was performed using rabbit anti-heparanase polyclonal antibodies as described in U.S. Pat. Nos. 6,177,545; 6,531,129; and 6,562,950.
Following a 17 hours incubation at room temperature, reaction products were filtered to a new plate and quantified using di-methyl-methylene-blue, as described in U.S. Pat. No. 6,190,875.
Assay mixtures contained heparin (Sigma, H3393) or heparinomimetic molecules ethane-1,2-disulfonic acid (Sigma, E2269) and heparin disaccharide IVA (Sigma, H0895) for western blot analysis or heparin sepharose beads for activation assays, in 200 mM acetate buffer, pH 5.5, 4 mM EDTA and 8 mM DTT, with either Cathepsin B, Cathepsin D or both. Following a 17 hours of incubation at room temperature, reaction products were examined by western blot analysis or filtered to a new plate and quantified using di-methyl-methylene-blue, as described in U.S. Pat. No. 6,190,875 for activation assay.

Cathepsin B = details: value reported in the literature (M. Murata et al., FEBS Lett., 280, 307, 1991); cited from earlier work
pro-heparanase (H60) [2] = biological target: T1, pro-heparanase (H60); assay: Pro-heparanase activation in a cell-based assay (293 cells, DMB assay); details: inhibition of pro-heparanase activation (H60); Table 15
β-FGF = biological target: T2, β-FGF (Homo sapiens, UniProt P09038); assay: Elisa assay for binding of β-FGF to heparin; details: inhibition of β-FGF binding to heparin
T2 construct: purchased Sigma F0291
T2 sequence (P09038 143-288): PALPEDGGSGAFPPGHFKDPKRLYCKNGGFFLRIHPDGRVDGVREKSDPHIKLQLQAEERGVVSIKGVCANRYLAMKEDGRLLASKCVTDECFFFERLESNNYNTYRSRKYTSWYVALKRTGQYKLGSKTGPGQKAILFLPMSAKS
Procedure: Elisa assay for determination of binding of β-FGF to heparin—96 well microplates were coated overnight with Heparin-albumin (Lizard) and blocked with 1% BSA in PBS with 0.05% Tween and 0.01% thimerosal for 2 hrs. β-FGF was added to the plates at a concentration of 0.8 ng/ml and incubated for 45 min at 23-25° C. The amount of β-FGF bound to heparin was detected using anti-FGF monoclonal antibody (Sigma Cat. # F6162) at a concentration of 2.5 ng/ml and secondary antibodies Sheep anti-mouse IgG linked to horseradish peroxidase (1:3000). TMB (Pierce Cat. #34021) was used as a substrate for peroxidase.
(§1) The plates were read at 450 nm with a reference wavelength of 630 nm using a VERSAmax plate reader. […] Percent inhibition was calculated as compared with the control reactions pre-incubated with 1% DMSO only.

VEGF = biological target: T3, VEGF (Homo sapiens, UniProt P15692); assay: Elisa assay for binding of VEGF to heparin; details: inhibition of VEGF binding to heparin
T3 sequence (P15692 27-191 isoform P15692-4): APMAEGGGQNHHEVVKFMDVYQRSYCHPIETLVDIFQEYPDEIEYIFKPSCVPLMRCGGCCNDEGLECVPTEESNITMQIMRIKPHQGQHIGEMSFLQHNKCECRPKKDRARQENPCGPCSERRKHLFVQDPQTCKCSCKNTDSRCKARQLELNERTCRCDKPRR
Procedure: Elisa assay for determination of binding of VEGF to heparin—96 well microplates were coated overnight with Heparin-albumin (Lizard) and blocked with 1% BSA in PBS with 0.05% Tween and 0.01% thimerosal for 2 hrs. VEGF was added to the plates at a concentration of 2 ng/ml and incubated for 45 min. at 23-25° C. The amount of VEGF bound to heparin was detected using anti-VEGF monoclonal antibody (Sigma Cat. # V4758) at a concentration of 0.26 μg/ml and secondary antibodies Sheep anti-mouse IgG linked to horseradish peroxidase (1:2000). TMB (Pierce Cat. #34021) was used as a substrate for peroxidase.
as §1

heparanase (H53) = biological target: T4, heparanase (H53) (Homo sapiens, UniProt Q9Y251, K307R); assay: Heparanase activity inhibition (H53), DMB assay; assay type: biochemical; details: for pIC50: heparanase activity inhibition (H53), NI = no inhibition
T4 sequence (Q9Y251 158-543 K307R limits assumed): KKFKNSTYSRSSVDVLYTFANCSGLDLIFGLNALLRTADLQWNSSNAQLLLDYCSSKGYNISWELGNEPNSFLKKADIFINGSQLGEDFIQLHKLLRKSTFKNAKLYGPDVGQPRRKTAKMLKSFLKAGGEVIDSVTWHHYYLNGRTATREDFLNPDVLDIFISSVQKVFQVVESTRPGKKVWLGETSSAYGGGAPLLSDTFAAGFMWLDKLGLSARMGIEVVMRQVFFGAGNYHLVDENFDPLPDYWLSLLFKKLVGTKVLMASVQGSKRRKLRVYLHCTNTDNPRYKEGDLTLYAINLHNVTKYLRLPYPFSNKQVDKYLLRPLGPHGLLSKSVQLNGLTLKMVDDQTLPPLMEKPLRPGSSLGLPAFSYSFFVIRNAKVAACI
T4 sequence (Q9Y251 36-109 limits assumed): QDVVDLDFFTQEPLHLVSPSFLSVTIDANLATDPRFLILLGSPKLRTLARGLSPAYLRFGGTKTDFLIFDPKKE
Procedure: At the end of the incubation, the cells were lysed by three consecutive cycles of freezing and thawing in a −80° C. Freezer and a 37° C. shaker. Formation of active heparanase was detected by determination of heparanase activity in DMB assay as described in patent application U.S. Pat. No. 6,190,875B.

HUVEC cells = assay: Cord Formation Assay; assay type: cell-based; details: Homo sapiens; HUVEC cells on matrigel, 24 h; read-out: Inhibition of cord formation IC50
Procedure: (§2) Cord formation and cell migration assays were executed following explicit directives provided by the inventors of the present invention by the National Cancer Institute (Biological Testing Branch, Developmental Therapeutics Program, DCTD, NCI, Fairview Center, Suite 205, 1003 West 7th Street, Frederick, Md. 21701-8527).
Cord Formation Assay—Matrigel (60 μl of 10 mg/ml; Collaborative Lab # 35423) was placed in each well of an ice-cold 96-well plate. The plate was incubated at room temperature for 15 minutes and then transferred to 37° C. for 30 minutes to permit matrigel polymerization. Concomitantly with plate coating, HUVEC cells were diluted in EGM-2 (Clonetic # CC3162) at a concentration of 2×10^5 cells/ml. Each test compound was prepared at a 2 fold higher concentration than desired (5 concentration levels) using the same medium. Cells (500 μl) and 2× drug (500 μl) were mixed and 200 μl of this suspension were placed in duplicates on the polymerized matrigel. Following 24 h incubation, triplicate pictures were taken for each concentration using a Bioquant Image Analysis system. Drug effect (IC50) was assessed by comparing to untreated controls and measuring the length of cords formed and number of junctions.

HUVEC cell = assay: Cell Migration Assay (Boyden chamber); assay type: cell-based; details: Homo sapiens, HUVEC cells, 5 h, read-out: Inhibition of chemotaxis IC50
Procedure: as §2
Cell Migration Assay—Migration was assessed using a 48-well Boyden chamber including 8 μm pore size collagen-coated (10 μg/ml rat tail collagen; Collaborative Laboratories) polycarbonate filters (Osmonics, Inc.). The bottom chamber wells included 27-29 μl of DMEM medium alone (baseline) or medium containing chemo-attractant (bFGF, VEGF or Swiss 3T3 cell conditioned medium). The top chambers included 45 μl of HUVEC cell suspension (1×10^6 cells/ml) prepared in DMEM+1% BSA with or without the test compound. Followinf 5 h of incubation at 37° C., the membrane was rinsed with PBS, fixed and stained in Diff-Quick solutions. The filter was placed on a glass slide with the migrated cells facing down and cells on top were removed using a Kimwipe. The testing was performed in 4-6 replicates where five fields were counted from each well. Negative unstimulated control values were subtracted from stimulated control and drug treated values. Data wad plotted as mean migrated cell±S.D. IC50 was calculated from the plotted data.

Heparanase = biological target: T5, Heparanase (Homo sapiens, UniProt Q9Y251, K307R); assay: Dimerization assay (H53 hetero-dimer formation, di-methyl-methylene-blue); assay type: biochemical
T5 sequence (Q9Y251 158-543 K307R limits assumed): T4 sequence (Q9Y251 158-543 K307R limits assumed)
T5 sequence (Q9Y251 36-109 limits assumed): T4 sequence (Q9Y251 36-109 limits assumed)
Description: Dimerization assay—Activation assay using di-methyl-methylene-blue was effected as described in U.S. Pat. No. 6,190,875.

pro-heparanase (H60) [3] = biological target: T1, pro-heparanase (H60); assay: Circular dichroism spectrometry of pro-heparanase
Procedure: Circular Dichroism spectrometry—Circular Dichroism spectra were recorded using a JASCO 500 spetropolarimeter. Far Ultraviolet measurements (260-200 nm) were performed in a 0.1 mm demountable cuvette at 25° C., scanning at a rate of 10 nm/min. Pro-heparanase was assayed at a concentration of 0.72 mg/ml in 20 mM sodium phosphate buffer pH 6.8 supplemented with 300 mM NaCl. Effect of heparin on pro-heparanase spectra was determined at a concentration of 100 μM, and the inhibitor was added at a concentration of 15 μM. Base-line recordings were performed in the presence and absence of heparin to correct the pro-heparanase spectra.

[4] = inhibition of H53 hetero-dimer formation by H8-derived peptides, read-out: IC50 H53

Compound: CCCNC(=O)[C@H]1O[C@@H]1C(=O)N[C@H](C(=O)N1CCC[C@H]1C(=O)O)[C@@H](C)CC [CA-074]
% Inhibition (293 cell extract): 96%
activation of pro-heparanase in vitro (heparanase activity) (pro-heparanase (H60) [1]): inhibited this activation

Compound: O=C(O)CCCN1C(=O)C(=Cc2ccc(-c3cccc([N+](=O)[O-])c3)o2)SC1=S [Compound 4]
pIC50 (pro-heparanase (H60) [2]): 6.80
pIC50 (β-FGF): 4.27
pIC50 (VEGF): 4.75
heparanase activity inhibition (H53) in addition to inhibition of pro-heparanase activation (heparanase (H53)): dual activity
pIC50 (heparanase (H53)): 5.52

Compound: O=C(O)CCCN1C(=O)C(=Cc2ccc(-c3ccc(Cl)cc3)o2)SC1=S [Compound 6]
pIC50 (pro-heparanase (H60) [2]): 6.06
pIC50 (β-FGF): 4.62
pIC50 (VEGF): 4.75
heparanase activity inhibition (H53) in addition to inhibition of pro-heparanase activation (heparanase (H53)): dual activity
pIC50 (heparanase (H53)): 4.44
pIC50 (HUVEC cells): 5.49
pIC50 (HUVEC cell): 5.40

Compound: COCCCN1C(=O)C(=Cc2ccc(-c3ccc(Cl)cc3)o2)SC1=S [Compound 58]
pIC50 (pro-heparanase (H60) [2]): 6.04
pIC50 (β-FGF): 6.70
pIC50 (VEGF): 6.70

Compound: O=C1/C(=C\c2ccc(-c3ccccc3Cl)o2)SC(=S)N1C1CCS(=O)(=O)C1 (centres unmarked) [Compound 59]
pIC50 (pro-heparanase (H60) [2]): 6.62
pIC50 (β-FGF): 6.40
pIC50 (VEGF): 6.40
pIC50 (HUVEC cells): 6.40
pIC50 (HUVEC cell): 6.60

Compound: O=S(=O)(O)CCS(=O)(=O)O [Compound E2269, ethane-1,2-disulfonic acid]
processing of pro-heparanase in vitro (Western blot) (pro-heparanase (H60) [1]): allowed processing of the H60

Compound: PRFLILLGSPKLR [Compound P8-4]
pIC50 (Heparanase; [4]): 5.64

Continued, in another order:

processing of pro-heparanase in vitro (Western blot) (pro-heparanase (H60) [1]): allowed processing of the H60
Compound: CC(=O)N[C@H]1C(O)O[C@H](CO)[C@@H](O[C@@H]2OC(C(=O)O)=C[C@H](O)[C@H]2O)[C@@H]1O (some centres unmarked) [heparin disaccharide IVA]

processing of pro-heparanase in vitro (Western blot) (pro-heparanase (H60) [1]): No processing occurred
activation of pro-heparanase in vitro (heparanase activity) (pro-heparanase (H60) [1]): inhibited this activation
Compound: CC(C)CC(=O)N[C@H](C(=O)N[C@H](C(=O)N[C@@H](CC(C)C)[C@@H](O)CC(=O)N[C@@H](C)C(=O)N[C@@H](CC(C)C)[C@@H](O)CC(=O)O)C(C)C)C(C)C [pepstatin] (Isovaleryl-VV[Sta]A[Sta]-OH)
% Inhibition (293 cell extract): 0%

pIC50 (Heparanase; [4]): 5.15
Compound: CPAYLRFGGTKTDFLIFDPLLE [Pep-7]

pIC50 (Heparanase; H45-derived peptide, inhibition of H53 hetero-dimer formation, read-out: IC50 Heparanase): 4.68
Compound: CTWHHYYLNGRTATR [Pep-25]

pIC50 (Heparanase; [4]): 5.22
Compound: DPRFLILL [Compound P8-16]

pIC50 (Heparanase; [4]): 5.10
Compound: FLILLGSPKLRTL [Compound P8-8]

pIC50 (Heparanase; [4]): 4.74
Compound: LRTLARGLSPAYL [Compound P8-5]

pIC50 (Heparanase; [4]): 5.85
Compound: PRFLILL [Compound P8-11]

pIC50 (Heparanase; [4]): 5.30
Compound: RFLILL [Compound P8-18]

processing of pro-heparanase in vitro (Western blot) (pro-heparanase (H60) [1]): heparanase was processed by cathepsin D
conformational change in pro-heparanase (pro-heparanase (H60) [3]): significant conformational change
Compound: heparin [reference compound]
